Where two headings read alike, the source gives them in different places.
Key:
[1] = system: solubilizing enzyme of HB-EGF; experiment: Inhibition of TPA-stimulated release of HB-EGF from HT-1080 transfectant expressing HB-EGF/alkaline phosphatase fusion protein; format: cell-based, human; conditions: HT-1080 HB-EGF-AP transfectant, TPA 60 nM for 60 min, AP activity in conditioned medium (OD405)
Procedure: Human fibrosarcoma HT-1080 stable transfectant expressing fusion protein of HB-EGF and human placental alkaline phosphatase (AP) were used for following experiments.
The cultured transfectant was treated with Trypsin-EDTA solution, and suspended in Minimum Essential Medium (without phenol red; supplemented with 10% heat-inactivated fetal calf serum; MEM) at the concentration of 1×10^5 cells/ml. Each 0.2 ml of the cell suspension was dispensed into individual wells of 96 well microplate, and incubated overnight in the CO2 incubator (37° C.). After the incubation, the conditioned medium was removed, and the wells were washed once with 0.2 ml of phosphate buffered saline. The cells were treated with 0.1 ml of compound solution [compound solutions in dimethylsulfoxide (DMSO) were diluted 100 times with MEM] for 30 min at 37° C. Then the compound solutions were removed, and cells were treated with 0.2 ml of TPA solution (120 μM) of stock solution was diluted to 60 nM with MEM) containing same concentration of the compound for 60 min at 37° C. The cells treated same procedure without compound were used as control.
After these treatments, each 0.1 ml of conditioned medium was transferred to individual wells of new 96 well microplate and incubated at 65° C. for 10 min to inactivate endogenous alkaline phosphatase. One hundred microliter of substrate solution (1 mg/ml of p-nitrophenyl phosphate in 0.01% magnesium chloride/1 M diethanolamine) for AP was added to each well and incubated for 120 min at room temperature in the dark. The OD405 of each well was measured with microplate reader. The IC50 values of the compounds were calculated from the concentration-inhibition curves.

[2] = system: epidermal hyperplasia induced by TPA; experiment: TPA-induced epidermal hyperplasia on dorsal skin of mice; format: in vivo, male BALB/c mice; conditions: ED50; topical in acetone at 1 minute, 24 and 48 hours after TPA; epidermal thickness 72 hours after TPA
Procedure: After backs of male BALB/c mice were shaved, 20 micro 1 of TPA-acetone solution (50 μM) was applied to the dorsal skin surface in an area of ca. 1 cm^2. A volume of 20 micro 1 of test compound-acetone solution was applied to the same area a minute, 24 hours and 48 hours after TPA application (the treated group). In the non-treated group, acetone was applied instead of the test compound. In the control group, acetone was applied instead of TPA and the test compound. The mice were sacrificed, and the skin tissues treated with TPA or the test compound were excised 72 hours after TPA application. Then the tissues were fixed with 10% formalin and embedded in paraffin according to the conventional method. The vertical sections including the center of the TPA- or the test compound-treated area were prepared and they were stained by hematoxylin-eosin. The epidermal thickness was measured using an ocular microscope. The amount of the test compound required for achieving 50% inhibition against the mean epidermal thickness of the non-treated group (ED50) was calculated, wherein the mean epidermal thickness of the non-treated group was 100% and that of the control group was 0%.

[3] = system: re-epithelialization of skin wound; experiment: Re-epithelialization in mouse skin wound model; format: in vivo, male BALB/c mice; conditions: 50% inhibition of re-epithelialization; applied to 6-mm wound once a day
Procedure: Wound healing model was prepared according to the method described by Tsuboi, et al. [J. Dermatol., 19, 673-675 (1992)]. Briefly, after backs of male BALB/c mice were shaved, two full-thickness round wounds were prepared in parallel to anterior-posterior axis on the back of each mouse using a punch biopsy instrument (6-mm diameter). After the operation, a test compound dissolved or suspended in 0.1M phosphate-buffered saline containing 1.5% sodium carboxymethylcellulose (vehicle) was applied to each wound in a volume of 50 μl/wound. The wounds were left open. From the following day, the compound was applied to each wound once a day for 7 days (the treated group). In the control group, vehicle solution only was applied in the same manner. One day after the last application, mice were sacrificed and skin tissues around the anterior wound were excised. The tissues were fixed with 10% formalin and embedded in paraffin according to the conventional method. The sections were made perpendicularly to the anterior-posterior axis. Keratinocytes in the specimen were stained with an anti-keratin antibody. Measurements of wound size and epidermal migration were performed by using an image-analyzing software. Re-epithelialization was calculated as follows; [formula]
The amount of the test compound required for achieving 50% inhibition against the mean re-epithelialization of the control group (ED50) was calculated.

Row | Compound | IC50 ([1]; read-out: IC50) [nM] | Amount of test compound required for 50% suppression of epidermal hyperplasia [2] | IC50 [1] [nM] | ED50 [3]
1 | O=C(NO)C1Cc2nccnc2CN1S(=O)(=O)c1ccccc1 (single isomer, unassigned; (+)) [the compound(36), (+)-N-Hydroxy-6-benzenesulfonyl-5,6,7,8-tetrahydropyrido[3,4-b]pyrazine-7-carboxamide] | 510 | 130 10^−6 g/cm^2 | – | –
2 | CNC(=O)C(Cc1ccccc1)NC(=O)C(C(C)C)C(C)C(=O)NO [the compound e, 4-(N-hydroxyamino)-2 (R)-isopropyl-3-methylsuccinyl-L-phenylalanine-N-methylamide, reference compound] | 100 | – | – | –
3 | O=C(NO)C1Cc2nccnc2CN1S(=O)(=O)c1cccs1 (single isomer, unassigned; (+)) [the compound(46), (+)-N-Hydroxy-6-[(thiophen-2-yl)sulfonyl]-5,6,7,8-tetrahydropyrido[3,4-b]pyrazine-7-carboxamide] | – | 69 10^−6 g/cm^2 | 960 | –
4 | O=C(NO)C1Cc2nccnc2CN1S(=O)(=O)/C=C/c1ccccc1 (single isomer, unassigned; (+)) [the compound(47), (+)-N-Hydroxy-6-(2-trans-phenylethenesulfonyl)-5,6,7,8-tetrahydropyrido[3,4-b]pyrazine-7-carboxamide] | 1900 | – | – | –
5 | CNC(=O)[C@@H](NC(=O)[C@H](CC(C)C)C(CN1CCc2ccccc2C1)C(=O)NO)c1ccccc1 (stereo partly drawn) [the compound c, [4-(N-hydroxyamino)-2 (R)-isobutyl-3-(1,2,3,4-tetrahydro-isoquinolylmethyl)succinyl]-L-phenylglycine —N-methylamide, reference compound] | 54 | 190 10^−6 g/cm^2 | – | –
6 | COCCCOc1ccc(S(=O)(=O)N2Cc3nccnc3CC2C(=O)NO)cc1 (racemic) [the compound(4), (±)-N-Hydroxy-6-[4-(3-methoxypropoxy)benzenesulfonyl]-5,6,7,8-tetrahydropyrido[3,4-b]pyrazine-7-carboxamide] | 240 | – | – | –
7 | CCOCCCOc1ccc(S(=O)(=O)N2Cc3nccnc3CC2C(=O)NO)cc1 (racemic) [the compound(12), (±)-N-Hydroxy-6-[4-(ethoxypropoxy)benzenesulfonyl]-5,6,7,8-tetrahydropyrido[3,4-b]pyrazine-7-carboxamide] | 160 | – | – | –
8 | CC(=O)OCCOc1ccc(S(=O)(=O)N2Cc3nccnc3CC2C(=O)NO)cc1 (single isomer, unassigned; (+)) [the compound(33), (+)-N-Hydroxy-6-[4-(2-acetoxyethoxy)benzenesulfonyl]-5,6,7,8-tetrahydropyrido[3,4-b]pyrazine-7-carboxamide] | 400 | – | – | –
9 | CCCOc1ccc(S(=O)(=O)N2Cc3nccnc3CC2C(=O)NO)cc1 (single isomer, unassigned; (+)) [the compound(16), (+)-N-Hydroxy-6-(4-propoxybenzenesulfonyl)-5,6,7,8-tetrahydropyrido[3,4-b]pyrazine-7-carboxamide] | 1000 | – | – | 11.6 10^−6 g/0.3 cm^2
10 | O=C(NO)C1Cc2nccnc2CN1S(=O)(=O)c1ccc(Oc2ccccc2)cc1 (racemic) [the compound(3), (±)-N-Hydroxy-6-(4-phenoxybenzenesulfonyl)-5,6,7,8-tetrahydropyrido[3,4-b]pyrazine-7-carboxamide] | 1000 | – | – | –
11 | Cc1ccc(S(=O)(=O)N2Cc3nccnc3CC2C(=O)NO)cc1 (single isomer, unassigned; (+)) [the compound(31), (+)-N-Hydroxy-6-(4-methylbenzenesulfonyl)-5,6,7,8-tetrahydropyrido[3,4-b]pyrazine-7-carboxamide] | 2700 | – | – | –
12 | CCOCCCOc1ccc(S(=O)(=O)N2Cc3nccnc3CC2C(=O)NO)cc1 (single isomer, unassigned; (+)) [the compound(23), (+)-N-Hydroxy-6-[4-(3-ethoxypropoxy)benzenesulfonyl]-5,6,7,8-tetrahydropyrido[3,4-b]pyrazine-7-carboxamide] | 92 | – | – | –
13 | O=C(NO)C1Cc2nccnc2CN1S(=O)(=O)c1ccc(OCCCc2ccccc2)cc1 (single isomer, unassigned; (+)) [the compound(45), (+)-N-Hydroxy-6-[4-(3-phenylpropoxy)benzenesulfonyl]-5,6,7,8-tetrahydropyrido[3,4-b]pyrazine-7-carboxamide] | – | – | 630 | –

More lines, main results first:

Row | IC50 ([1]; read-out: IC50) [nM] | Compound | Amount of test compound required for 50% suppression of epidermal hyperplasia [2] | IC50 [1] [nM] | ED50 [3]
14 | 1500 | O=C(NO)C1Cc2nccnc2CN1S(=O)(=O)c1ccc(-c2ccccc2)cc1 (single isomer, unassigned; (+)) [the compound(40), (+)-N-Hydroxy-6-(biphenyl-4-sulfonyl)-5,6,7,8-tetrahydropyrido[3,4-b]pyrazine-7-carboxamide] | 20 10^−6 g/cm^2 | – | –
15 | 810 | O=C(NO)C1Cc2nccnc2CN1S(=O)(=O)c1ccc(F)cc1 (single isomer, unassigned; (+)) [the compound(37), (+)-N-Hydroxy-6-(4-fluorobenzenesulfonyl)-5,6,7,8-tetrahydropyrido[3,4-b]pyrazine-7-carboxamide] | 120 10^−6 g/cm^2 | – | –
16 | 260 | CCCCOCCCOc1ccc(S(=O)(=O)N2Cc3nccnc3CC2C(=O)NO)cc1 (single isomer, unassigned; (+)) [the compound(25), (+)-N-Hydroxy-6-[4-(3-buthoxypropoxy)benzenesulfonyl]-5,6,7,8-tetrahydropyrido[3,4-b]pyrazine-7-carboxamide] | – | – | –
17 | 260 | CCOCCOc1ccc(S(=O)(=O)N2Cc3nccnc3CC2C(=O)NO)cc1 (racemic) [the compound(7), (±)-N-Hydroxy-6-[4-(2-ethoxyethoxy)benzenesulfonyl]-5,6,7,8-tetrahydropyrido[3,4-b]pyrazine-7-carboxamide] | – | – | –
18 | 1700 | CNC(=O)C(Cc1cccc2ccccc12)NC(=O)C(CC(=O)NO)CC(C)C [the compound d, [4-(N-hydroxyamino)-2 (R)-isobutylsuccinyl]-L-3-(1-naphtyl)-alanine-N-methylamide, reference compound] | 40 10^−6 g/cm^2 | – | –
19 | 36 | CCOCCOc1ccc(S(=O)(=O)N2Cc3nccnc3CC2C(=O)NO)cc1 (single isomer, unassigned; (+)) [the compound(27), (+)-N-Hydroxy-6-[4-(2-ethoxyethoxy)benzenesulfonyl]-5,6,7,8-tetrahydropyrido[3,4-b]pyrazine-7-carboxamide] | 58 10^−6 g/cm^2 | – | –
20 | 330 | O=C(NO)C1Cc2nccnc2CN1S(=O)(=O)c1ccc(OC(F)(F)F)cc1 (single isomer, unassigned; (+)) [the compound(17), (+)-N-Hydroxy-6-(4-trifluoromethoxybenzenesulfonyl)-5,6,7,8-tetrahydropyrido[3,4-b]pyrazine-7-carboxamide] | 48 10^−6 g/cm^2 | – | –
21 | 2200 | CC(=O)c1ccc(S(=O)(=O)N2Cc3nccnc3CC2C(=O)NO)cc1 (single isomer, unassigned; (+)) [the compound(42), (+)-N-Hydroxy-6-(4-acetylbenzenesulfonyl)-5,6,7,8-tetrahydropyrido[3,4-b]pyrazine-7-carboxamide] | – | – | –

Source: patent US20030229113A1, “Keratinocyte growth inhibitors and hydroxamic acid derivatives” (priority 2003, published 2003)
